This passage reports IC50 results from US9694016B2 (Novartis AG, priority 2013, dated 2017).

Chain of b-Raf (V600E) (P15056 whole entry V600E): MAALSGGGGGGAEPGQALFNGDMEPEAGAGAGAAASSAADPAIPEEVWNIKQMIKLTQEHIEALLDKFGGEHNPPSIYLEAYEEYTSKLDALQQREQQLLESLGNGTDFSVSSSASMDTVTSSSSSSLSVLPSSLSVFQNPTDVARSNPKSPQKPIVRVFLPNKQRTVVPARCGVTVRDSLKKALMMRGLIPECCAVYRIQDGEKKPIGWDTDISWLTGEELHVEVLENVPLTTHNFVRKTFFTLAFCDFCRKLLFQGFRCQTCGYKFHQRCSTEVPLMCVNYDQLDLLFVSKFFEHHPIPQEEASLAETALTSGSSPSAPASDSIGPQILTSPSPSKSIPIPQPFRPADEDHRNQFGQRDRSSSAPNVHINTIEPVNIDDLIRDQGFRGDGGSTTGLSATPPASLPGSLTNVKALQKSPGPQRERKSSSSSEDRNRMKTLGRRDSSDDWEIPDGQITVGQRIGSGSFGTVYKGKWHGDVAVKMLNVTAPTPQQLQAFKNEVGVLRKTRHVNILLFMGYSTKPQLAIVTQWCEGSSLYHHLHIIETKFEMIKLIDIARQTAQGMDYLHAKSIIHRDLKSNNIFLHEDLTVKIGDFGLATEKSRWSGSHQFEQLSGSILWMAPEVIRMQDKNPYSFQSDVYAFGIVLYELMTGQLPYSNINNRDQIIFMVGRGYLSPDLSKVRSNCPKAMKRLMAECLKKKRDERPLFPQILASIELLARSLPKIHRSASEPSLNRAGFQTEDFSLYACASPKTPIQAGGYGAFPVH

The first assay addresses b-Raf (V600E) (Homo sapiens (Human), UniProt P15056, V600E). The conditions noted are these: read-out: b-Raf IC-50; AlphaScreen, 60 min pre-incubation, 3 hours reaction. On the technique in general: Bead proximity is the source of the signal in Alpha formats.
As for `Cc1ccc(NC(=O)c2ccnc(C(C)(F)F)c2)cc1-c1cc(N2CCOC[C@H]2C)n(C)c(=O)c1` [Example 523, (R)-2-(1,1-difluoroethyl)-N-(4-methyl-3-(1-methyl-6-(3-methylmorpholino)-2-oxo-1,2-dihydropyridin-4-yl)phenyl)isonicotinamide], the IC50 is 3.7 nM.

In the case of `Cc1ccc(NC(=O)c2ccnc(C(C)(C)C#N)c2)cc1-c1cc(N2CCOCC2(C)C)c(=O)n(C)n1` [Example 671, 2-(2-cyanopropan-2-yl)-N-(3-(5-(3,3-dimethylmorpholino)-1-methyl-6-oxo-1,6-dihydropyridazin-3-yl)-4-methylphenyl)isonicotinamide], the IC50 was determined as 25.5 nM.

Turning to `Cc1ncc(NC(=O)c2ccnc(S(C)(=O)=O)c2)cc1-c1cc(N2CCOCC2)n(C)c(=O)c1` [Example 504, N-(1′,2-dimethyl-6′-morpholino-2′-oxo-1′,2′-dihydro-[3,4′-bipyridin]-5-yl)-2-(methylsulfonyl)isonicotinamide], the IC50 turned out to be 21 nM. Same read-out and setting: under `Cc1ccc(NC(=O)c2cc(F)cc(N3CCOCC3)c2)cc1-c1cc(N2CCOCC2)n(C)c(=O)c1` [Example 491, 3-fluoro-N-(4-methyl-3-(1-methyl-6-morpholino-2-oxo-1,2-dihydropyridin-4-yl)phenyl)-5-morpholinobenzamide] stands 2.1 nM; under `Cc1ccc(NC(=O)c2ccnc(C(C)C)c2)cc1-c1cc(N2CCOCC2)nc(N(C)C)n1` [Example 757, N-(3-(2-(dimethylamino)-6-morpholinopyrimidin-4-yl)-4-methylphenyl)-2-isopropylisonicotinamide], 1.4 nM. Same read-out and setting: in the case of `COc1ncc(-c2cc(NC(=O)c3ccnc(S(C)(=O)=O)c3)ccc2C)nc1N1CCOCC1` [Example 546, N-(3-(5-methoxy-6-morpholinopyrazin-2-yl)-4-methylphenyl)-2-(methylsulfonyl)isonicotinamide] it was 5 nM; in that of `Cc1ccc(NC(=O)c2cccc(C(C)(C)S(C)(=O)=O)c2)cc1-c1cc(N2CCOCC2)c(=O)n(C)n1` [Example 637, N-(4-methyl-3-(1-methyl-5-morpholino-6-oxo-1,6-dihydropyridazin-3-yl)phenyl)-3-(2-(methylsulfonyl)propan-2-yl)benzamide], 24.9 nM. Take `Cc1ccc(NC(=O)c2cccc(C(F)(F)F)c2)cc1-c1cc(N2CC3CC(C2)O3)c(=O)n(C)c1` [Example 464, N-(3-(5-(6-oxa-3-azabicyclo[3.1.1]heptan-3-yl)-1-methyl-6-oxo-1,6-dihydropyridin-3-yl)-4-methylphenyl)-3-(trifluoromethyl)benzamide]: the IC50 came to 16.8 nM. Still for that read-out and setting: in the case of `Cc1ccc(NC(=O)c2cccc(C(F)F)c2)cc1-c1cc(N2CCOCC2)n(C)c(=O)c1` [Example 484, 3-(difluoromethyl)-N-(4-methyl-3-(1-methyl-6-morpholino-2-oxo-1,2-dihydropyridin-4-yl)phenyl)benzamide] it was 0.4 nM; in that of `CCNc1nc(-c2cc(NC(=O)c3ccnc(C(C)(C)C#N)c3)ccc2C)cc(N2CCOC[C@@H]2C)n1` [Example 714, (S)-2-(2-cyanopropan-2-yl)-N-(3-(2-(ethylamino)-6-(3-methylmorpholino)pyrimidin-4-yl)-4-methylphenyl)isonicotinamide], 2.5 nM. Take `Cc1ncc(NC(=O)c2ccnc(C(C)(F)F)c2)cc1-c1cc(N2CCO[C@@H](CO)C2)n(C)c(=O)c1` [Example 529, (R)-2-(1,1-difluoroethyl)-N-(6′-(2-(hydroxymethyl)morpholino)-1′,2-dimethyl-2′-oxo-1′,2′-dihydro-[3,4′-bipyridin]-5-yl)isonicotinamide]: the IC50 is 76.1 nM. On the same count and under the same terms, in the case of `Cc1ccc(NC(=O)c2ccnc(C(C)(C)F)c2)cc1-c1cc(N2CCOCC2)n(C)c(=O)c1` [Example 479, 2-(2-fluoropropan-2-yl)-N-(4-methyl-3-(1-methyl-6-morpholino-2-oxo-1,2-dihydropyridin-4-yl)phenyl)isonicotinamide] it was 1.8 nM; in that of `Cc1ccc(NC(=O)c2ccnc(C(C)(C)C#N)c2)cc1-c1cc(N2CC3CC(C2)O3)c(=O)n(C)c1` [Example 465, N-(3-(5-(6-oxa-3-azabicyclo[3.1.1]heptan-3-yl)-1-methyl-6-oxo-1,6-dihydropyridin-3-yl)-4-methylphenyl)-2-(2-cyanopropan-2-yl)isonicotinamide], 100 nM.

For `Cc1ncc(NC(=O)c2cc(C(F)(F)F)ccn2)cc1-c1cc(N2CCOCC2)c(OC2CCOCC2)nn1` [Example 629, N-(6-methyl-5-(5-morpholino-6-((tetrahydro-2H-pyran-4-yl)oxy)pyridazin-3-yl)pyridin-3-yl)-4-(trifluoromethyl)picolinamide], the IC50 amounted to 1.2 nM.

Still in this assay, the particulars now being: read-out: b-Raf IC-50; AlphaScreen, 60 min pre-incubation, reaction 3 hours at room temperature.
For the compound `Cc1ncc(NC(=O)c2cc(C(C)(F)F)ccn2)cc1-c1cnc(OC(C)C)c(N2CCOCC2)c1` [Example 956, 4-(1,1-difluoroethyl)-N-(6′-isopropoxy-2-methyl-5-morpholino-[3,3′-bipyridin]-5-yl)picolinamide], the IC50 worked out at 2.94 nM. The same measure, in the same setting: in the case of `Cc1ccc(NC(=O)c2ccnc(C(C)(C)C#N)c2)cc1-c1nc(N2CCOCC2)c2sccc2n1` [Example 862, 2-(2-cyanopropan-2-yl)-N-(4-methyl-3-(4-morpholinothieno[3,2-d]pyrimidin-2-yl)phenyl)isonicotinamide] it was 0.9 nM; in that of `Cc1ccc(NC(=O)[C@@H]2CCN[C@H](C(F)(F)F)C2)cc1-c1cc(C2COCCO2)nc(N2CCOCC2)c1` (stereo in doubt) [Example 1132, N-(3-(2-(1,4-dioxan-2-yl)-6-morpholinopyridin-4-yl)-4-methylphenyl)-2-(trifluoromethyl)piperidine-4-carboxamide], 270 nM; in that of `Cc1ccc(NC(=O)c2ccnc(C(C)(C)F)c2)cc1-c1cc(OCCO)nc(N2CCOCC2)c1` [Example 1158, 2-(2-fluoropropan-2-yl)-N-(3-(2-(2-hydroxyethoxy)-6-morpholinopyridin-4-yl)-4-methylphenyl)isonicotinamide], 1.63 nM. Regarding `Cc1ccc(NC(=O)c2ccnc(C(F)(F)F)c2)cc1-c1cc(NCCO)nc(N2CCOCC2)c1F` [Example 1008, N-(3-(3-fluoro-6-((2-hydroxyethyl)amino)-2-morpholinopyridin-4-yl)-4-methylphenyl)-2-(trifluoromethyl)isonicotinamide], the IC50 is 13.3 nM. Same read-out and setting: in the case of `Cc1ccc(NC(=O)c2ccnc(C(F)(F)F)c2)cc1-c1cc(OCCO)nc(N2CCOCC2)c1` [Example 1156, N-(3-(2-(2-hydroxyethoxy)-6-morpholinopyridin-4-yl)-4-methylphenyl)-2-(trifluoromethyl)isonicotinamide] it was 0.73 nM; in that of `Cc1ccc(NC(=O)c2cnnc(C(F)(F)F)c2)cc1-c1cc(OCCO)nc(N2CCOCC2)c1` [Example 1164, N-(3-(2-(2-hydroxyethoxy)-6-morpholinopyridin-4-yl)-4-methylphenyl)-6-(trifluoromethyl)pyridazine-4-carboxamide], 0.57 nM; in that of `Cc1ccc(NC(=O)c2ccnc(C(C)(C)F)c2)cc1-c1cc(NC[C@@H](C)O)nc(N2CCOCC2)n1` [Example 1025, (R)-2-(2-fluoropropan-2-yl)-N-(3-(6-((2-hydroxypropyl)amino)-2-morpholinopyrimidin-4-yl)-4-methylphenyl)isonicotinamide], 12.7 nM. The same measure, in the same setting: under `Cc1ccc(NC(=O)c2cccc(C(F)(F)F)c2)cc1-c1cc(N2CCOCC2)nc(N2C[C@H](O)CC2=O)c1` [Example 1064, (R)—N-(3-(2-(4-hydroxy-2-oxopyrrolidin-1-yl)-6-morpholinopyridin-4-yl)-4-methylphenyl)-3-(trifluoromethyl)benzamide] stands 0.65 nM; under `Cc1ccc(NC(=O)c2ccnc(C(F)(F)F)c2)cc1-c1cc(N2CCOCC2)nc(N2CCC(O)C2)c1` (stereo not drawn) [Example 1130, N-(3-(2-(3-hydroxypyrrolidin-1-yl)-6-morpholinopyridin-4-yl)-4-methylphenyl)-2-(trifluoromethyl)isonicotinamide], 2.24 nM. For `Cc1ncc(NC(=O)c2cccc(C(F)(F)F)c2)cc1-c1cc(N2CCOCC2)c(S(C)(=O)=O)nn1` [Example 919, N-(6-methyl-5-(6-(methylsulfonyl)-5-morpholinopyridazin-3-yl)pyridin-3-yl)-3-(trifluoromethyl)benzamide], the IC50 was 4.11 nM.

The assay is the same for the next values; noted with them: read-out: b-Raf IC-50; Table 2; AlphaScreen, 3 hours reaction.
Regarding `Cc1ncc(NC(=O)c2cnnc(C(F)(F)F)c2)cc1-c1cnc(Cl)c(N2CCOCC2)c1` [Example 292, N-(6′-chloro-2-methyl-5′-morpholino-[3,3′-bipyridin]-5-yl)-6-(trifluoromethyl)pyridazine-4-carboxamide], the IC50 is 3.8 nM. The same measure, in the same setting: under `Cc1ccc(NC(=O)c2cn(C)nc2C)cc1-c1cc(N2CCOCC2)c(=O)n(C)c1` [Example 366, 1,3-dimethyl-N-(4-methyl-3-(1-methyl-5-morpholino-6-oxo-1,6-dihydropyridin-3-yl)phenyl)-1H-pyrazole-4-carboxamide] stands 100 nM; under `Cc1ccc(NC(=O)c2cccc(C(F)(F)F)c2)cc1-c1cc(N2CCOCC2)nc(-n2ccnc2)n1` [Example 33, N-(3-(2-(1H-imidazol-1-yl)-6-morpholinopyrimidin-4-yl)-4-methylphenyl)-3-(trifluoromethyl)benzamide], 0.5 nM.

As for `Cc1ccc(NC(=O)c2ccnc(C(C)(C)O)c2)cc1-c1cnc(OC(F)F)c(N2CCOCC2)c1` [Example 226, N-(3-(6-(difluoromethoxy)-5-morpholinopyridin-3-yl)-4-methylphenyl)-2-(2-hydroxypropan-2-yl)isonicotinamide], the IC50 came to 1.9 nM.

As for `CCC(F)(F)c1cc(C(=O)Nc2ccc(C)c(-c3cc(N4CCOCC4)c(=O)n(C)c3)c2)ccn1` [Example 341, 2-(1,1-difluoropropyl)-N-(4-methyl-3-(1-methyl-5-morpholino-6-oxo-1,6-dihydropyridin-3-yl)phenyl)isonicotinamide], the IC50 worked out at 2 nM.
